The text below walks through data of patent US20030216426A1 (REGENTS OF THE UNIVERSITY OF CALIFORNIA, priority 2002, published 2003).

Counter-ions that a name gives are not always drawn.

One may read the IC50 as the concentration needed to halve the response being measured. A high value points to weaker potency in that assay.

Data set [1] deals with myeloma cell lines RPM18226. Nature of the data set: Apoptosis induction in myeloma cell line. The format is cell-based. As to conditions: RPM18226 myeloma cells.
A further data set deals with HCT-116. Nature of the data set: MTT cell viability assay, HCT-116. The format is cell-based. The note with it: Homo sapiens, Colon, 72 hours exposure. On the procedure:
(§1) After 72 hours exposure, the viability of the cells was determined by the rate of conversion of the formazan salt measuring the optical density (OD) at 570 nm (MTT assay).

The next data set concerns LNCap. Briefly: MTT cell viability assay, LNCap. Type of data set: cell-based. As to conditions: Homo sapiens, Prostate, 72 hours exposure. On the procedure: as §1
The test system of another data set is MCF7. Briefly: MTT cell viability assay, MCF7. The format is cell-based. The note with it: Homo sapiens, Breast, 72 hours exposure. On the procedure:
as §1
Background: Formazan colour is commonly taken as a measure of viable cells.

Another data set concerns MDA-231. Briefly: MTT cell viability assay, MDA-231. As to conditions: Homo sapiens, MDA-MB-231, Breast, 72 hours exposure. Type of data set: cell-based. On the procedure: as §1
The test system of another data set is RAJI. Briefly: MTT cell viability assay, RAJI. The note with it: Homo sapiens, Lymphoma, 72 hours exposure. Type of data set: cell-based. On the procedure:
as §1

In a further data set the test system is U266. Nature of the data set: MTT cell viability assay, U266. Type of data set: cell-based. The note with it: Homo sapiens, U-266, Myeloma, 72 hours exposure. The procedure: as §1
The test system of the next data set is SU-DHL9. Nature of the data set: MTT cell viability assay, SU-DHL9. The format is cell-based. As to conditions: Lymphoma, 72 hours exposure. On the procedure: as §1
Another data set relates to RPMI8226. Nature of the data set: MTT cell viability assay, RPMI8226. The format is cell-based. As to conditions: Homo sapiens, RPMI-8226, Myeloma, 72 hours exposure. On the procedure: as §1
The next data set concerns 10C9. Briefly: MTT cell viability assay, 10C9. Type of data set: cell-based. As to conditions: Lymphoma, 72 hours exposure. On the procedure: as §1
A further data set deals with SU-DHL1. Briefly: MTT cell viability assay, SU-DHL1. Type of data set: cell-based. The note with it: Homo sapiens, SU-DHL-1, Lymphoma, 72 hours exposure. The procedure:
as §1

Data set [2] concerns control normal lymphocytes (PBL). Briefly: Viability/apoptosis of control normal lymphocytes by dye exclusion and flow cytometric analysis. Type of data set: cell-based, human. The note with it: 10 μM, 48 hours exposure, PBL of a healthy volunteer. The procedure:
(§2) After 48 hours exposure, the number of viable cells was determined by dye exclusion and flow cytometric analysis.
(Flow cytometry measures light scatter and fluorescence of single cells or particles in a stream.)

Data set [3] deals with Chronic lymphocytic leukemia cells (CLL). Briefly: Viability/apoptosis of CLL cells by dye exclusion and flow cytometric analysis. The format is cell-based, human. The note with it: 10 μM, 48 hours exposure, CLL cells of two patients. The procedure:
as §2

Data set [4] has as its system peripheral blood T lymphocytes. The note with it: cited from earlier work.
For a further data set, the system named is CLL cells. As to conditions: not feasible in vivo due to toxicity; cited from earlier work.
For data set [5] the following is noted: cited from earlier work.
For data set [6] the following is noted: in vivo; cited from earlier work.
For data set [7] the following is noted: cited from earlier work. This is another data set of the same source.

`O[C@H](c1cc(C(F)(F)F)nc2c(C(F)(F)F)cccc12)[C@@H]1CCCCN1` (racemic) [(+/−) Mefloquine, (R*, S*)-(±)-alpha-2-piperidinyl-2,8-bis (trifluoromethyl)-4-quinolinemethanol]: the IC50 was 10 to 20 µM in data set [1]; 6 µM with HCT-116; 12 µM in the data set with LNCap; 10 µM in the data set with MCF7; 20 µM in the data set on MDA-231; 12 µM in the data set on RAJI. Moreover, the half-maximal inhibitory concentration (IC50) in the data set with U266 was 11 µM; in the data set on SU-DHL9, 7 µM; with RPMI8226, 8 µM; in the data set on 10C9 it was 9 µM; with SU-DHL1, 8 µM.

Take `O[C@H](c1cc(C(F)(F)F)nc2c(C(F)(F)F)cccc12)[C@@H]1CCCCN1` (relative stereo) [(+/−) Mefloquine, (R*, S*)-(±)-alpha-2-piperidinyl-2,8-bis (trifluoromethyl)-4-quinolinemethanol]: the “induction of apoptosis in normal lymphocytes” value in data set [2] is reported as “not against normal lymphocytes”. Further, the “induction of apoptosis in CLL cells” value in data set [3] is “potent apoptosis”.

For the compound `CCN(CCO)CCCC(C)Nc1ccnc2cc(Cl)ccc12` (stereo not shown) [Hydroxychloroquine, hydroxychloroquine], in [4], the “induction of apoptosis in peripheral blood T lymphocytes” value is “induce apoptosis”. Also, the “concentration active against CLL cells” value with CLL cells is at least 30 µg/mL.

As for `OC(c1cc(C(F)(F)F)nc2c(C(F)(F)F)cccc12)C1CCCCN1` (stereo not shown) [Mefloquine hydrochloride], the solubility in ethanol entry in [5] (ethanol) is reported as “soluble in ethanol”. For the same compound, in data set [5] (water), the solubility in water entry is “slightly soluble in water”.

In the case of `O=C(O)c1cc(C(F)(F)F)nc2c(C(F)(F)F)cccc12` [Metabolite, 2,8-bis-trifluoromethyl-4-quinoline carboxylic acid], in data set [6], the “passage of the blood brain barrier / accumulation in the brain” value is “will not penetrate the brain barrier”. Moreover, the “Mean (SD) trough concentration, Plasma” value in data set [7] (healthy volunteers, 250 mg once weekly for 16 weeks, steady state at week 16, plasma) is on record as 9.80 (5.07) μmol · 1^−1. Besides, in data set [7] (healthy volunteers, 250 mg once weekly for 16 weeks, steady state at week 16, serum), the “Mean (SD) trough concentration, Serum” value was 9.44 (5.00) μmol · 1^−1. For the same compound, the “Mean (SD) trough concentration, Whole Blood” value in data set [7] (healthy volunteers, 250 mg once weekly for 16 weeks, steady state at week 16, whole blood) is given as 4.89 (2.58) μmol · 1^−1. For the same compound, in data set [7] (plasma, text statement referring to Table 1), the “accumulation in the plasma” value was “up to 10 μM”.
